According to US12679878B2, “CRF2 receptor agonists and their use in therapy” (SANOFI, priority 2020, dated 2026):
Where two headings read alike, the source gives them in different places. Starred links: 1 amine or outer side, 2 acyl side, 3 side chain; linkers in the order of their positions; H or OH if unused. Non-standard residues stand in square brackets, D forms with d. Residues, ends and D or L forms follow the SMILES beside them. Groups on a side chain read outwards from the residue. *: point of attachment. C18 diacid = O=C(O)CCCCCCCCCCCCCCCCC(=O)*; γGlu = O=C(O)[C@H](CCC(=O)[*:2])N[*:1]; Palmitoyl = CCCCCCCCCCCCCCCC(=O)*; AEEA = NCCOCCOCC(=O)O; Aib = CC(C)(N)C(=O)O

Tests used:
Assay type in all cases: cell-based
human CRF2α receptor = molecular target: T1, human CRF2α receptor (Homo sapiens, UniProt Q13324); assay: cAMP agonism at human CRF2 α receptor in TeloHEAC cells (Example 7); conditions: cAMP HTRF, TeloHEAC cells stably expressing human CRF2 α
T1 construct: expressed in transfected cells; host or cells: TeloHEAC
T1 sequence (Q13324 1-411): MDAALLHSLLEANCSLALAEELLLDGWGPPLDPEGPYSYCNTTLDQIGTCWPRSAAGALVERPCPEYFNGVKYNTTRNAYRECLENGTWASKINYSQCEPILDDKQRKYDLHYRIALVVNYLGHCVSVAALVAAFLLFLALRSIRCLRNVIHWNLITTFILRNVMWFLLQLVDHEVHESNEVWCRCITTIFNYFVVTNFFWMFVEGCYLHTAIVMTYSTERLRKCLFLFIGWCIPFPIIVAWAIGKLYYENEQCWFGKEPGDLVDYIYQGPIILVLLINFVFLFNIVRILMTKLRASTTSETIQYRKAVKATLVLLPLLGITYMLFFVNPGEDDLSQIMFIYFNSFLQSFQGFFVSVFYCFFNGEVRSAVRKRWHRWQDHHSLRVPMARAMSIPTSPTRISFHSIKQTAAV
Procedure, shortened: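 Percent activation was referenced to 1000 nM UCN2 (100%), and EC50 values taken as concentrations giving half of maximal response. The read-out was a homogeneous time-resolved fluorescence cAMP kit, fluorescence ratio 665/620 nm. Thawed cells (2000/well) saw compound for 30 min at RT in buffer with 2 mM IBMX and 0%/0.1% HSA.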

rat CRF2R α receptor = assay: cAMP agonism at rat CRF2R α receptor in A7R5 rat aortic smooth muscle cells (Example 8); conditions: cAMP HTRF, A7R5 rat aortic smooth muscle cell line, 0% HSA
Procedure, shortened: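 Potency (EC50) is the concentration reaching half-maximal activation, with responses scaled so that 1000 nM urocortin 2 equals 100%. Intracellular cAMP was quantified by homogeneous time-resolved fluorescence at 665/620 nm, 1 h after lysis-buffer reagents. Compound stimulation lasted 30 min at room temperature on 2000 IBMX-treated (2 mM) cells per well in HEPES-buffered HBSS.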

CRF1R receptor = molecular target: T2, CRF1R receptor (Homo sapiens, UniProt P34998); assay: cAMP activity at anti-target CRF1R, CRF1R-overexpression CHO cell line (Example 9); conditions: for EC50: 0% HSA
T2 construct: host or cells: CHO-K1 clone 2
T2 sequence (P34998 24-415): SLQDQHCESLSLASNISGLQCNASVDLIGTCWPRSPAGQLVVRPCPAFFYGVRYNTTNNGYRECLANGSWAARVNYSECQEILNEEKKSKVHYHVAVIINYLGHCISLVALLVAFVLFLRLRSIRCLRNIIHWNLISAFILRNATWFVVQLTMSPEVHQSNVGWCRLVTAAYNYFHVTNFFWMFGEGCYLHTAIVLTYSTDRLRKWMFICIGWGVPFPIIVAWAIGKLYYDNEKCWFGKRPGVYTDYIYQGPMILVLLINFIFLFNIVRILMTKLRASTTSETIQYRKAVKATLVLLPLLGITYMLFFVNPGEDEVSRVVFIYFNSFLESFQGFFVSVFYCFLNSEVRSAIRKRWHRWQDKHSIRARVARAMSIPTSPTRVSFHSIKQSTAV
Procedure, shortened: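 Using thawed CRF1R-overexpressing CHO cells at 2000 per well, compound is applied for 30 min at RT in HBSS/HEPES buffer with IBMX. Cellular cAMP content is determined via HTRF, and percent activity is calculated against 1000 nM UCN2 defined as 100%.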

[1] = 0% HSA, read-out: EC50 [nM], 0% HSA
[2] = CRF1R-overexpression CHO cell line
[3] = CRF1R-overexpression CHO cell line, read-out: Emax (%)

Row | SMILES | EC50 (human CRF2α receptor; [1]) [nM] | EC50 (rat CRF2R α receptor) [nM] | EC50 (CRF1R receptor; [2]) [nM] | Emax (CRF1R receptor; [3]) [%] | EC50 (human CRF2α receptor; 0.1% HSA, read-out: EC50 [nM], 0.1% HSA) [nM] | Emax (CRF1R receptor; CHO) [%]
1 | CCCCCCCCCCCCCCCC(=O)N[C@@H](CCC(=O)NCCCC[C@H](NC(=O)[C@@H](NC(=O)[C@H](CCCCN)NC(=O)[C@@H](NC(=O)[C@@H]1CCCN1C(=O)[C@@H](NC(=O)[C@H](CC(=O)O)NC(=O)[C@H](CC(C)C)NC(=O)[C@H](CO)NC(=O)[C@H](CC(C)C)NC(=O)[C@@H](NC(=O)[C@@H](N)Cc1ccccc1)[C@@H](C)O)C(C)C)[C@@H](C)O)[C@@H](C)CC)C(=O)N[C@@H](CCC(N)=O)C(=O)N[C@@H](CCCCN)C(=O)N[C@@H](CC(C)C)C(=O)N[C@@H](CC(C)C)C(=O)N[C@@H](CCCCN)C(=O)N[C@@H](CCC(N)=O)C(=O)N[C@@H](CCC(=O)O)C(=O)N[C@@H](CCCCN)C(=O)N[C@@H](CCC(N)=O)C(=O)N[C@@H](CCCCN)C(=O)N[C@@H](CCCCN)C(=O)N[C@@H](CCC(N)=O)C(=O)N[C@@H](CCCNC(=N)N)C(=O)N[C@@H](CCC(N)=O)C(=O)N[C@@H](CCCCN)C(=O)N[C@@H](C)C(=O)N[C@@H](CCCCN)C(=O)N[C@H](C(=O)N[C@@H](C)C(=O)N[C@@H](C)C(=O)N[C@@H](CCC(N)=O)C(=O)N[C@H](C(=O)N[C@@H](CC(C)C)C(=O)N[C@@H](C)C(=O)N[C@@H](CCC(N)=O)C(=O)N[C@H](C(N)=O)C(C)C)[C@@H](C)CC)[C@@H](C)O)C(=O)O [compound 8] (H-FTLSLDVPTKIK([γGlu-Palmitoyl])QKLLKQEKQKKQRQKAKTAAQILAQV-NH2; N-terminus assumed) | 0.2 | 0.11 | > 1000 | 16 | – | –
2 | CCCCCCCCCCCCCCCC(=O)N[C@@H](CCC(=O)NCCCC[C@H](NC(=O)[C@@H](NC(=O)[C@H](CCCCN)NC(=O)[C@@H](NC(=O)[C@@H]1CCCN1C(=O)[C@@H](NC(=O)[C@H](CC(=O)O)NC(=O)[C@H](CC(C)C)NC(=O)[C@H](CO)NC(=O)[C@H](CC(C)C)NC(=O)[C@@H](NC(=O)[C@@H](N)Cc1ccccc1)[C@@H](C)O)C(C)C)[C@@H](C)O)[C@@H](C)CC)C(=O)N[C@@H](CCC(N)=O)C(=O)N[C@@H](CCCCN)C(=O)N[C@@H](CC(C)C)C(=O)N[C@@H](CC(C)C)C(=O)N[C@@H](CCCCN)C(=O)N[C@@H](CCC(N)=O)C(=O)N[C@@H](CCC(=O)O)C(=O)N[C@@H](CCCCN)C(=O)N[C@@H](CCC(N)=O)C(=O)N[C@@H](CCCCN)C(=O)N[C@@H](CCCCN)C(=O)N[C@@H](CCC(N)=O)C(=O)N[C@@H](CCCNC(=N)N)C(=O)N[C@@H](CCC(N)=O)C(=O)N[C@@H](CCCCN)C(=O)N[C@@H](C)C(=O)N[C@@H](CCCCN)C(=O)N[C@H](C(=O)N[C@@H](CC(N)=O)C(=O)N[C@@H](C)C(=O)N[C@@H](CCC(N)=O)C(=O)N[C@H](C(=O)N[C@@H](CC(C)C)C(=O)N[C@@H](C)C(=O)N[C@@H](CCC(N)=O)C(=O)N[C@H](C(N)=O)C(C)C)[C@@H](C)CC)[C@@H](C)O)C(=O)O [compound 11] (H-FTLSLDVPTKIK([γGlu-Palmitoyl])QKLLKQEKQKKQRQKAKTNAQILAQV-NH2) | 0.02 | 0.01 | > 1000 | 12.7 | – | –
3 | CC[C@H](C)[C@H](NC(=O)[C@H](CCC(N)=O)NC(=O)[C@H](CCC(=O)O)NC(=O)[C@H](CC(C)C)NC(=O)[C@H](CC(C)C)NC(=O)[C@H](CCC(N)=O)NC(=O)[C@H](CCCCN)NC(=O)[C@H](CC(N)=O)NC(=O)[C@H](CCCCN)NC(=O)[C@H](CCC(=O)O)NC(=O)[C@H](C)NC(=O)[C@H](CCC(N)=O)NC(=O)[C@H](CCC(N)=O)NC(=O)[C@H](CCCNC(=N)N)NC(=O)[C@H](CCC(=O)O)NC(=O)[C@H](CCCCN)NC(=O)[C@H](CCCCN)NC(=O)[C@H](CCC(N)=O)NC(=O)[C@H](CCCCN)NC(=O)[C@H](CCC(N)=O)NC(=O)[C@H](CCC(N)=O)NC(=O)[C@H](CCCCN)NC(=O)[C@H](Cc1ccccc1)NC(=O)[C@H](CC(C)C)NC(=O)[C@@H](NC(=O)[C@H](CCC(N)=O)NC(=O)[C@H](CCCCNC(=O)COCCOCCNC(=O)COCCOCCNC(=O)CC[C@H](NC(=O)CCCCCCCCCCCCCCCCC(=O)O)C(=O)O)NC(=O)[C@@H](NC(=O)[C@H](CCCCN)NC(=O)[C@@H](NC(=O)[C@@H]1CCCN1C(=O)[C@@H](NC(=O)[C@H](CC(=O)O)NC(=O)[C@H](CC(C)C)NC(=O)[C@H](CO)NC(=O)[C@H](CC(C)C)NC(=O)[C@@H](NC(=O)[C@@H](N)Cc1ccccc1)[C@@H](C)O)C(C)C)[C@@H](C)O)[C@@H](C)CC)[C@@H](C)CC)C(N)=O [compound 13] (H-FTLSLDVPTKIK([AEEA-AEEA-γGlu-C18 diacid])QILFKQQKQKKERQQAEKNKQLLEQI-NH2; N-terminus assumed) | 0.98 | 2.5 | – | – | 64.1 | 4.3
4 | CCCCCCCCCCCCCCCC(=O)N[C@@H](CCC(=O)NCCCC[C@H](NC(=O)[C@@H](NC(=O)[C@H](CCCCN)NC(=O)[C@@H](NC(=O)[C@@H]1CCCN1C(=O)[C@@H](NC(=O)[C@H](CC(=O)O)NC(=O)[C@H](CC(C)C)NC(=O)[C@H](CO)NC(=O)[C@H](CC(C)C)NC(=O)[C@@H](NC(=O)[C@@H](N)Cc1ccccc1)[C@@H](C)O)C(C)C)[C@@H](C)O)[C@@H](C)CC)C(=O)N[C@@H](CCC(N)=O)C(=O)N[C@@H](CCCCN)C(=O)N[C@@H](CC(C)C)C(=O)N[C@@H](Cc1ccccc1)C(=O)N[C@@H](CCCCN)C(=O)N[C@@H](CCC(N)=O)C(=O)N[C@@H](C)C(=O)N[C@@H](CCCCN)C(=O)N[C@@H](CCC(N)=O)C(=O)N[C@@H](CCCCN)C(=O)N[C@@H](CCCCN)C(=O)N[C@@H](CCC(N)=O)C(=O)N[C@@H](CCCNC(=N)N)C(=O)N[C@@H](CCC(N)=O)C(=O)N[C@@H](CCCCN)C(=O)N[C@@H](C)C(=O)N[C@@H](CCCCN)C(=O)N[C@H](C(=O)N[C@@H](CC(N)=O)C(=O)N[C@@H](C)C(=O)N[C@@H](CCC(N)=O)C(=O)N[C@H](C(=O)N[C@@H](CC(C)C)C(=O)N[C@@H](C)C(=O)N[C@@H](CCCNC(=N)N)C(=O)N[C@H](C(N)=O)C(C)C)[C@@H](C)CC)[C@@H](C)O)C(=O)O [compound 15] (H-FTLSLDVPTKIK([γGlu-Palmitoyl])QKLFKQAKQKKQRQKAKTNAQILARV-NH2; N-terminus assumed) | 0.88 | 1.38 | > 1000 | 7.75 | – | –
5 | CC[C@H](C)[C@H](NC(C)=O)C(=O)N[C@H](C(=O)N[C@@H](CC(C)C)C(=O)N[C@@H](CO)C(=O)N[C@@H](CC(C)C)C(=O)N[C@@H](CC(=O)O)C(=O)N[C@@H](C(=O)N1CCC[C@H]1C(=O)N[C@H](C(=O)NCC(=O)N[C@@H](CC(C)C)C(=O)N[C@@H](CCCCNC(=O)COCCOCCNC(=O)COCCOCCNC(=O)CC[C@H](NC(=O)CCCCCCCCCCCCCCCCC(=O)O)C(=O)O)C(=O)N[C@@H](CCC(N)=O)C(=O)N[C@H](C(=O)N[C@@H](CC(C)C)C(=O)N[C@@H](CC(C)C)C(=O)N[C@@H](CCC(=O)O)C(=O)N[C@@H](CCC(N)=O)C(=O)N[C@@H](CCC(=O)O)C(=O)N[C@@H](CCCNC(=N)N)C(=O)N[C@@H](CCC(N)=O)C(=O)N[C@@H](CCCCN)C(=O)NC(C)(C)C(=O)N[C@@H](CCC(N)=O)C(=O)N[C@@H](CCCNC(=N)N)C(=O)N[C@@H](CCC(=O)O)C(=O)N[C@@H](CCC(N)=O)C(=O)N[C@@H](C)C(=O)N[C@@H](CCC(=O)O)C(=O)N[C@@H](CCCCN)C(=O)N[C@@H](CC(N)=O)C(=O)N[C@@H](CCC(=O)O)C(=O)N[C@@H](CCC(N)=O)C(=O)N[C@H](C(=O)N[C@@H](CC(C)C)C(=O)N[C@@H](CCC(=O)O)C(=O)N[C@@H](CCC(N)=O)C(=O)N[C@H](C(N)=O)C(C)C)[C@@H](C)CC)[C@@H](C)CC)[C@@H](C)CC)C(C)C)C(C)C [compound 167] (Ac-IVLSLD[dV]PIGLK([AEEA-AEEA-γGlu-C18 diacid])QILLEQERQK[Aib]QREQAEKNEQILEQV-NH2) | – | 76.9 | – | -0.46 | – | –
